Test results from EP0417987B1, “Fabric softening” (UNILEVER PLC, priority 1989, dated 1991).
Where a name gives a salt, the structure may show the parent alone. Each block holds one compound with its values, some of them ahead of it.

Key:
[1] = pH of the rinse water after adding rinse conditioner to the last rinse cycle of a machine wash; type: physicochemical; details: 90 mls rinse conditioner (about 200 ppm amine) in last rinse cycle
Experimental: (§1) The performance and stability of several amine containing liquid fabric softening compositions was tested as follows:
(§2) A wash load of 1.25 kg of terry towelling and 1.25 kg of cotton sheeting fabrics was washed at 40°C in a Miele 756 automatic with 100g of Persil Automatic (UK).

[2] = pH of the undiluted liquid rinse conditioner; details: rinse conditioner 5wt% Armeen M2HT, 1wt% tallow 35EO
Experimental: as §1, §2

[3] = Stability of the undiluted liquid rinse conditioner; details: rinse conditioner 5wt% Armeen M2HT, 1wt% tallow 35EO
Experimental: as §1, §2

[4] = pH adjuster conc 0.3 M in product
[5] = pH adjuster conc 0.5 M in product
[6] = pH adjuster conc 0.9 M in product
[7] = pH adjuster conc 0.7 M in product
[8] = pH adjuster conc 1.0 M in product
[9] = pH adjuster conc 0.4 M in product
[10] = pH adjuster conc 0.6 M in product

undiluted product stability ([3]; pH adjuster conc 0.7 M): stable
undiluted product pH ([2]; pH adjuster conc 0.7 M): 1.5
rinse pH [1, 5]: 5.4
rinse pH [1, 7]: 4.7
rinse pH [1, 6]: 3.4
SMILES: O=C(O)CC(=O)O [Malonic, malonic acid]

undiluted product stability ([3]; pH adjuster conc 0.6 M): unstable
undiluted product pH ([2]; pH adjuster conc 0.6 M): 0.8
rinse pH [1, 4]: 6.0
rinse pH [1, 9]: 4.8
rinse pH [1, 10]: 3.3
SMILES: O=C(O)C(=O)O [Oxalic, Oxalic acid]

undiluted product stability ([3]; pH adjuster conc 1.0 M): stable
undiluted product stability ([3]; pH adjuster conc 1.5 M): stable
undiluted product pH ([2]; pH adjuster conc 1.0 M): 2.3
undiluted product pH ([2]; pH adjuster conc 1.5 M): 2.2
rinse pH [1, 8]: 4.5
rinse pH ([1]; pH adjuster conc 1.5 M in product): 4.2
SMILES: O=C(O)CCC(=O)O [Succinic, succinic acid]

rinse pH [1, 9]: 5.7
rinse pH [1, 5]: 4.5
rinse pH ([1]; pH adjuster conc 0.8 M in product): 3.9
SMILES: O=C(O)C(O)C(O)C(=O)O (centres unmarked) [Tartaric, tartaric acid]

Continued, compound first:

SMILES: O=C(O)CC(O)(CC(=O)O)C(=O)O [Citric, citric acid]
rinse pH [1, 4]: 5.6
rinse pH [1, 5]: 4.5
rinse pH [1, 6]: 3.8

SMILES: Cl [HCl]
undiluted product pH ([2]; pH adjuster conc 0.7 M): 0.2
undiluted product pH ([2]; pH adjuster conc 1.0 M): 0.1
rinse pH [1, 7]: 5.2
rinse pH [1, 6]: 4.4
rinse pH [1, 8]: 3.7

SMILES: O=P(O)(O)O [o-H₃PO₄, orthophosphoric acid]
undiluted product pH ([2]; pH adjuster conc 0.6 M): 1.3
undiluted product pH ([2]; pH adjuster conc 1.2 M): 0.8
rinse pH [1, 10]: 5.6
rinse pH [1, 6]: 4.6
rinse pH ([1]; pH adjuster conc 1.2 M in product): 3.8
